For one experiment, the system named is Anopheles gambiae. Nature of the experiment: Warm Body assay, repellence of mosquito landing on treated warm body. In kind it is in vivo. As for the experimental part:
Anopheles gambiae is also a model organism as it is anthropophilic and transmits malaria.
The controlling effect according to the present invention was assessed using an adapted Warm Body assay as defined in Kröber T, Kessler S, Frei J, Bourquin M, Guerin PM. 2010. J Am Mosq Control Assoc. 26:381-386. In this in-vitro assay the number of mosquito landing on a warm body, simulating an attractive host treated with the tested stimuli, was measured in order to assess the repellence effect.
On the sandblasted glass Petri dish covering the warm body (28.3 cm^2), 100 μL of the compounds diluted at different concentrations in ethanol was applied. The number of mosquito landing on the warm body was counted for each stimulus and pure ethanol (solvent) as control.

The test system of experiment [1] is Aedes aegypti. The experiment is described as above. In kind it is in vivo. The note with it: for reduction of the number of mosquito landing: since the dose of 0.0016%.
Another experiment relates to Ixodes ricinus. The experiment can be described thus: Warm Plate Assay, tick repellence.
Experiment [2] has as its system Aedes aegypti. The experiment can be described thus: Arm-in-cage test on human volunteers. In kind it is in vivo. The conditions noted are these: arm treated with 20%, three human volunteers. As for the experimental part: The controlling effect, repellence & spatial repellence, according to the present invention is also determined according to an arm in the box method adapted from the WHO Guidelines for efficacy repellents testing of mosquito for human skin (WHO/CDS/NTD/WHOPES/2009.4). The readiness of 100 hungry female mosquitoes A. aegypti to a test substance is assessed by comparing the results of an untreated arm to a treated in when inserted into the cage (40×40×40 cm) for 30 seconds (negative control) three times. Further information is provided in the accompanying examples.
Arm-In-Cage Test is the Large-Scale Test Used to Assess on Human Volunteer the Repellent Efficacy on Mosquitoes.
The Arm in the box method was adapted from the WHO Guidelines for efficacy testing of mosquito repellents for human skin (WHO/CDS/NTD/WHOPES/2009.4). The readiness of 100 hungry female mosquitoes A. aegypti to probe is assessed by inserting an untreated arm into the cage (40×40×40 cm) for 30 seconds (negative control) three times (once at the beginning, once at the fourth hour and once at the eighth hour), to determine probing activity. Then, the product is applied onto the skin of the forearm of a human volunteer (1 mL per 600 cm^2) and after 5 minutes, this arm is inserted into the cage and exposed for 3 minutes. The assay take place in temperature (27±2° C.) and humidity (80±10% RH) regulated room on three different volunteers.

A value given as a limit tells only on which side of the number the result lay.

The source of these data is US20250143297A1, “Arthropod Control Compositions” (FIRMENICH SA, priority 2022, published 2025).

Take `CC(C)c1cccc(C(C)CC=O)c1` (stereo not shown) [compound 1389, 3-(3-propan-2-ylphenyl)butanal]: the figures for the “Percentage of repellence of mosquitoes Anopheles gambiae landing on the warm body” value in the experiment with Anopheles gambiae (4.47 mg/mL) and in the experiment with Anopheles gambiae (10 mg/mL) were 58% and 96%, respectively. Moreover, the “Percentage of repellence of mosquitoes Aedes aegypti landing on the warm body” value in the experiment with Aedes aegypti [1] (0.0032 mg/mL) was determined as 11%; in the experiment on Aedes aegypti [1] (0.016 mg/mL) it was 0%; in the experiment with Aedes aegypti [1] (0.0357 mg/mL), 8%; in the experiment on Aedes aegypti [1] (0.053 mg/mL), 74%; with Aedes aegypti [1] (0.08 mg/mL), 53%; in the experiment on Aedes aegypti [1] (0.178 mg/mL), 30%. Moreover, the “Percentage of repellence of mosquitoes Aedes aegypti landing on the warm body” value is 81% in the experiment with Aedes aegypti [1] (0.4 mg/mL); 88% in the experiment on Aedes aegypti [1] (0.89 mg/mL); 87% with Aedes aegypti [1] (2 mg/mL); 84% with Aedes aegypti [1] (4.47 mg/mL); 90% with Aedes aegypti [1] (10 mg/mL).

With `COC(C)(C)c1ccc(CCC=O)cc1` [compound 681, 3-[4-(2-methoxy-2-propanyl)phenyl]propanal], the “Percentage of repellence of ticks Ixodes ricinus on the warm plate” value came to 0.0% with Ixodes ricinus (0.08 mg/mL), 13.3% with Ixodes ricinus (0.4 mg/mL), 92.3% with Ixodes ricinus (2 mg/mL) and 92.0% in the experiment with Ixodes ricinus (10 mg/mL). The “repellence of ticks Ixodes ricinus” value in the experiment with Ixodes ricinus (0.2% of stimulus applied) and in the experiment on Ixodes ricinus (1% of stimulus applied) was “above 90%” in each case. The “Percentage of repellence of mosquitoes Aedes aegypti landing on the warm body” value with Aedes aegypti [1] (0.0032 mg/mL) stood at 0%; in the experiment with Aedes aegypti [1] (0.016 mg/mL), 0%; with Aedes aegypti [1] (0.08 mg/mL), 31%; in the experiment on Aedes aegypti [1] (0.4 mg/mL), 49%; in the experiment with Aedes aegypti [1] (2 mg/mL), 89%; in the experiment with Aedes aegypti [1] (10 mg/mL) it was 92%.

For `Cc1cc(C(C)(C)C)ccc1CCC=O` [compound 859, 3-[2-methyl-4-(2-methyl-2-propanyl)phenyl] propanal], the “Percentage of repellence of mosquitoes Aedes aegypti landing on the warm body” value in the experiment with Aedes aegypti [1] (0.016 mg/mL) came out at 21%; in the experiment with Aedes aegypti [1] (0.4 mg/mL) it was 65%; with Aedes aegypti [1] (10 mg/mL), 98%.

As for `COc1ccc(CC(C)C=O)cc1` (stereo not shown) [compound 251, 3-(4-methoxyphenyl)-2-methylpropanal], the “percentage of repellence compared to untreated arm (mean ± SD)” value in the experiment on Aedes aegypti [2] (5 min post-application) was 100% ±; in the experiment on Aedes aegypti [2] (1 h post-application) it was 99.84% ±; with Aedes aegypti [2] (2 h post-application), 98.82% ±; in the experiment with Aedes aegypti [2] (3 h post-application), 95.59% ±; in the experiment on Aedes aegypti [2] (4 h post-application), 87.3% ±; with Aedes aegypti [2] (5 h post-application), 81.02% ±. The entries for the “percentage of repellence compared to untreated arm (mean ± SD)” value with Aedes aegypti [2] (6 h post-application), in the experiment with Aedes aegypti [2] (7 h post-application) and in the experiment on Aedes aegypti [2] (8 h post-application) were 73.75% ±, 65.56% ± and 64.04% ±, respectively. The “Percentage of repellence of mosquitoes Anopheles gambiae landing on the warm body” value with Anopheles gambiae (4.47 mg/mL) came to 100%; in the experiment on Anopheles gambiae (10 mg/mL), 96%. Besides, the “Percentage of repellence of mosquitoes Aedes aegypti landing on the warm body” value is listed as 0% in the experiment with Aedes aegypti [1] (0.0032 mg/mL); 0% in the experiment with Aedes aegypti [1] (0.0071 mg/mL); 0% with Aedes aegypti [1] (0.016 mg/mL); 61% in the experiment on Aedes aegypti [1] (0.0357 mg/mL); 54% with Aedes aegypti [1] (0.053 mg/mL); 40% in the experiment on Aedes aegypti [1] (0.08 mg/mL). Further, the “Percentage of repellence of mosquitoes Aedes aegypti landing on the warm body” value in the experiment on Aedes aegypti [1] (0.119 mg/mL) is 52%; with Aedes aegypti [1] (0.178 mg/mL), 71%; in the experiment with Aedes aegypti [1] (0.267 mg/mL), 97%; with Aedes aegypti [1] (0.4 mg/mL), 79%; in the experiment on Aedes aegypti [1] (0.598 mg/mL), 93%; in the experiment with Aedes aegypti [1] (0.89 mg/mL) it was 99%. Besides, the “Percentage of repellence of mosquitoes Aedes aegypti landing on the warm body” value in the experiment with Aedes aegypti [1] (2 mg/mL) was 96%; in the experiment with Aedes aegypti [1] (4.47 mg/mL), 97%; in the experiment on Aedes aegypti [1] (10 mg/mL) it was 89%.

With `CC(C)(C)c1ccc(CCC=O)cc1` [compound 294, 3-(4-tert-butylphenyl)propanal], the “Percentage of repellence of mosquitoes Anopheles gambiae landing on the warm body” value in the experiment with Anopheles gambiae (0.178 mg/mL) was 42%; in the experiment with Anopheles gambiae (0.267 mg/mL), 14%; in the experiment on Anopheles gambiae (0.4 mg/mL), 55%; in the experiment on Anopheles gambiae (4.47 mg/mL) it was 96%; in the experiment with Anopheles gambiae (10 mg/mL) it was 96%. Besides, the “Percentage of repellence of mosquitoes Aedes aegypti landing on the warm body” value in the experiment on Aedes aegypti [1] (0.016 mg/mL) amounted to 57%; in the experiment on Aedes aegypti [1] (0.4 mg/mL), 54%; with Aedes aegypti [1] (10 mg/mL), 96%. Besides, the “reduction of the number of mosquito landing” value with Aedes aegypti [1] is recorded as “by half”.

For the compound `CC(C)(O)Cc1ccc(CCC=O)cc1` [compound 867, 3-[4-(2-hydroxy-2-methylpropyl)phenyl]propanal], the figures for the “Percentage of repellence of mosquitoes Aedes aegypti landing on the warm body” value in the experiment with Aedes aegypti [1] (0.016 mg/mL), in the experiment on Aedes aegypti [1] (0.4 mg/mL) and with Aedes aegypti [1] (10 mg/mL) were 13%, 27% and 81%, respectively.

Take `COC(C)(C)c1ccc(CCC=O)c(C)c1` [compound 875, 3-[4-(2-methoxy-2-propanyl)-2-methylphenyl]propanal]: the “Percentage of repellence of mosquitoes Anopheles gambiae landing on the warm body” value in the experiment with Anopheles gambiae (0.178 mg/mL) was found to be 69%; with Anopheles gambiae (0.267 mg/mL), 66%; in the experiment with Anopheles gambiae (0.4 mg/mL), 93%; in the experiment with Anopheles gambiae (4.47 mg/mL), 97%; with Anopheles gambiae (10 mg/mL), 100%. The compound also yielded a mosquitoes repelled with Anopheles gambiae (lowest concentration tested, 0.0178%) of over 60%. Further, the “Percentage of repellence of mosquitoes Aedes aegypti landing on the warm body” value is recorded as 39% in the experiment with Aedes aegypti [1] (0.0032 mg/mL); 60% in the experiment with Aedes aegypti [1] (0.016 mg/mL); 24% in the experiment with Aedes aegypti [1] (0.08 mg/mL); 81% with Aedes aegypti [1] (0.4 mg/mL); 81% with Aedes aegypti [1] (2 mg/mL); 96% in the experiment on Aedes aegypti [1] (10 mg/mL). In addition, the “reduction of the number of mosquito landing” value in the experiment on Aedes aegypti [1] is reported as “by half”.
